Here are results for 1 molecule from US8128962B2, “Liquid compositions containing solubilized benzoyl peroxide, means for applying same and methods of treatment using same” (priority 2007, dated 2012).

Data set [1] can be described thus: Solubility of BP in solvents. The data set is classed as physicochemical.
For data set [2] the following is noted: water and most dermatologically safe solvents; cited from earlier work.
Data set [3] has as its system Propionibacterium acnes. Particulars: versus clindamycin or erythromycin; Leyden 2001; cited from earlier work.

As for `O=C(OOC(=O)c1ccccc1)c1ccccc1` [BP, benzoyl peroxide], in data set [1], the “Solubility of BP in absolute alcohol” value was “poor”. Also, in data set [2], the “Solubility of BP in water” value is given as “virtually insoluble”. In addition, in data set [3], the “Effectiveness in killing the bacteria responsible for causing acne” value is reported as “more effective than either clindamycin or erythromycin”.
